# A melting point compilation (Tetko et al.; mined from patent text by program, amines drawn as free bases though some values may be those of a salt)
# Residues, ends and D or L forms follow the SMILES beside them. *: point of attachment. Cbz = O=C(OCc1ccccc1)*
row,SMILES,melting point [°C]
1,COc1cc(N)c([N+](=O)[O-])cc1NCCO,165
2,CCC(N)(CO)CS(=O)(=O)c1ccccc1C(=O)c1ccccc1 (centres undefined),150 to 151
3,O=C(CCN1C(=O)c2ccccc2C1=O)c1ccccc1C(=O)c1ccc(Cl)cc1Cl,133 to 134
4,COc1ccc(C(=O)[C@H]2CC=CC[C@H]2C(=O)O)cc1Br (relative stereo),201 to 204
5,CC(C)C[C@H](NC(=O)c1c(F)cccc1F)C(=O)N[C@@H](C(C)C)[C@@H](O)c1c(-c2ccccc2)c1=O,111 to 122
6,COC(=O)C(Cc1c[nH]c2ccccc12)NC(=O)C(CCC(N)=O)NC(=O)OCc1ccccc1 (stereo not drawn) (Cbz-Gln-Trp-OMe; configuration not given here),197 to 198
7,CCc1cccc2c(/C=C(/C)C(=O)O)cc(OC)c(O)c12,127 to 128
8,CC(C)(N)Cc1c[nH]c2ccc(Br)cc12,150 to 155
9,O=C(O)CNC(=O)CCCCc1ccccc1,93 to 96
10,CCn1nc(-c2ccccc2)c(C(C)=O)c(Nc2cccc3ncccc23)c1=O,220 to 221
11,O=C1N(Cc2ccccn2)c2ccccc2C12COc1cc3c(cc12)OCCCO3 (centres undefined),122 to 123
12,N#Cc1cnc2cnc(F)cc2c1Nc1ccc(F)c(Cl)c1,108 to 111
13,COc1ccc(NN=C(Sc2ccc(F)cc2)C(C)=O)cc1,135 to 137
14,CCn1c(=O)c2c(nc(/C=C/c3cccc(OC(=O)c4ccccc4)c3)n2C)n(CC)c1=O,223 to 224
15,Cc1cc(SC(C)C)c(NC(=O)CN2CCN(CCSc3nc4cccc([N+](=O)[O-])c4o3)CC2)c(SC(C)C)n1,57 to 59
16,COc1ccc2[nH]cc(-c3cc4c(C#N)ccnc4[nH]3)c2c1,303 to 304
17,CCCc1c(OCCCSc2ccc(C(C)=O)c(OCCCC(=O)OCC)c2CCC)ccc(C(C)=O)c1O,87 to 88
18,O=C(Nc1ccc(-n2nc(C(F)(F)F)cc2C(F)(F)F)cc1)c1ccc(F)c(F)c1F,122 to 124
19,Cc1nn(C)c2cnc(-c3ccc(C(F)(F)F)cc3)nc12,286 to 289
20,O=C(C#Cc1cccc(OCc2ccccc2)c1)c1ccccc1,75 to 77
21,CS(=O)(=O)Nc1cc(C(O)CNCCCCCCOCC/C=C/c2ccc(F)cc2)ccc1O (centres undefined),79 to 80
22,O=C(NC(SC(=O)c1ccccc1)C(=O)NC(Cc1c[nH]c2ccccc12)C(=O)O)c1ccccc1 (centres undefined),188 to 191
23,CS(=O)(=O)c1ccc(-c2cnn(-c3ccc(F)c(F)c3)c(=O)c2C2CCCCC2)cc1,80 to 83
24,Cn1ccc2cc(/C=C/C3=CCN(Cc4ccccc4)CC3)ccc21,138
25,CN(C)CC(C(O)c1ccc([N+](=O)[O-])cc1)N1CCC(Cc2ccccc2)CC1 (centres undefined),132 to 135

row,SMILES,melting point [°C]
1,CC(=O)Nc1ccc2c(c1)CCC(CO)O2 (centres undefined),156
2,CC(=O)CCCCCCCCc1ccc(O)c(O)c1,74 to 76
3,CC(=O)c1c(-c2ccnc3ccccc23)[nH]c(-c2ccnc3ccccc23)c1C,> 260
4,COC(=O)c1ccc(/C=C/c2nc(-c3ccc4ccccc4c3)oc2C)cc1,216 to 217
5,CS(=O)(=O)NCCCCCCCCCCCCn1c2c(c3ccccc3c1=O)C(=O)c1ccccc1-2,113 to 117
6,COC(=O)Cc1ccc(OCCN)c(OC)c1,77 to 80
7,O=S(=O)(NC(CO)CO)c1ccc(Cl)s1,90 to 92
8,COc1cc(Nc2c(C#N)cnc3cc(-c4ccc(CN5CCC(CC(=O)O)CC5)cc4)ccc23)c(Cl)cc1Cl,239 to 240
9,COc1ccc(-c2nc(C#N)c[nH]2)cc1,219 to 220
10,CC(C)(CNc1ccc(C2=NNC(=O)CC2)cc1)[N+](=O)[O-],220 to 222
11,COc1ccc([N+](=O)[O-])c(C=O)c1,89 to 90
12,Cc1oc(-c2ccccc2)nc1CC=Cc1ccc(CC2OC(=O)NC2=O)cc1 (centres undefined),168 to 169
13,CCN1CCN(Cc2ccc(COc3cccc4c3CN(C3CCC(=O)NC3=O)C4=O)cc2)CC1=O (centres undefined),163 to 165
14,CC(C)CCS(=O)(=O)NC(=O)/C=C/c1cc(OC2CCOCC2)nn1Cc1ccc(Cl)cc1Cl,143 to 144
15,CCc1cccc(C)c1CNc1nc(OC)cc(NC)c1[N+](=O)[O-],166 to 167
16,CC(C)(C)OC(=O)N1CCCC(C(=O)OCC(=O)C(C)(C)C)(C(=O)OCc2ccccc2)C1 (centres undefined),60
17,CCOC(=O)c1ccc(OCCCCl)cc1,24 to 25
18,CCCCn1c2ccc(C)cc2c(=O)c2c1cnn2C,262
19,COc1cc(C(=O)c2ccc(C(F)(F)F)cc2)cc([N+](=O)[O-])c1O,172
20,Oc1ccc2cc(Br)ccc2c1-c1c(O)ccc2cc(Br)ccc12,109 to 114
21,Cc1ccc(-c2cccc(/C=C/C(=O)Nc3ccc(-c4ccccn4)cc3)c2)cc1,220 to 222
22,CC(C)COC(=O)N[C@@H](Cc1ccc2ccccc2c1)C(=O)CSCc1ccco1,84 to 87
23,COC(=O)Cn1c(C(=O)Nc2nc(-c3cc(Br)c(OC)cc3OC)c(CCC3CCCCC3)s2)cc2ccccc21,110 to 114
24,COc1ccc2c(c1)C(=O)C(C)(C)C(=O)N2,169 to 170
25,COC(=O)NCCc1cccc(C(=O)C=CN(C)C)c1,95 to 97

row,SMILES,melting point [°C]
1,Cc1ccc2[nH]cc(C(=O)[C@H]3CCCN3)c2c1,194 to 196
2,COC(=O)[C@@H](Cc1ccccc1)NC(=O)OCc1cc2cc(-c3ccsc3)ccc2o1,105 to 106
3,O=C(O)CCC(=O)OCc1ccc(-c2nn(Cc3ccccc3)c3cc(F)ccc23)o1,120 to 122
4,COC(=O)c1c(N)ncn1-c1c(C)cccc1C,154 to 156
5,CC(C)(C)c1ccccc1N1CCN(C(=O)C2CCC(=O)N2)CC1 (centres undefined),290
6,CSC1=Nc2ccccc2Cn2cccc21,148 to 150
7,O=C1c2ccc(SCc3ccccc3)cc2C(=O)c2cc3ccccc3cc21,200 to 203
8,O=c1oc2ccccc2n1CCCl,77 to 79
9,O=S(=O)(c1ccccc1)N1CCC(C(O)(c2ccc(F)cc2)c2ccc(F)c(F)c2)CC1 (centres undefined),97 to 99
10,CNC(=O)c1sc(C(C)(C)C)cc1NC(=O)Nc1ccc(F)cc1,203 to 204
11,Nc1ccc2ccc(Oc3ccc(Cl)cc3)nc2n1,177
12,N#Cc1ccc2c(c1)CCC1CC(=O)NN=C21 (centres undefined),292 to 295
13,COc1ccc(C2CCN(C(=O)C(=O)O)CC2)cc1OC1CCCC1,112 to 113
14,O=C(O)Cc1cc(OCc2ccc3ccccc3n2)ccc1Nc1c(Cl)cccc1Cl,162
15,Cn1ncc2[nH]c3ccc(Cc4ccccc4)cc3c(=O)c21,282
16,O=S1(=O)c2cccc3cccc(c23)N1CCN1CCC(CCn2ccc3ccccc32)CC1,152
17,COC(=O)c1cn2c(n1)COc1ccc(NC(C)=O)cc1-2,216 to 219
18,COc1cc(C=C2CCN(C(=O)NO)C2=O)cc(OC)c1O,203 to 204
19,COC(=O)c1cc(CN=[N+]=[N-])cc([N+](=O)[O-])c1,44 to 46
20,CCc1ccccc1NS(=O)(=O)c1cc(S(=O)(=O)Nc2ccccc2CC)c2cc(O)ccc2c1,127 to 129
21,CC(C)c1cc(-c2ccc(F)cc2)nc(O)n1,215 to 217
22,Cc1oc(-c2ccccc2)nc1COc1ccccc1CON=C(CCC(=O)O)c1ccccc1,116 to 117
23,CCOc1cc2ncc(NCc3ccccc3)nc2cc1OCC,136
24,COC1=CCCSC1c1cc(N2C(=O)C3=C(CCCC3)C2=O)ccc1Cl (centres undefined),116 to 119
25,Cc1cc(OCC(=O)NCc2ccccc2)ccc1N1CC(=O)NS1(=O)=O,70 to 90

row,SMILES,melting point [°C]
1,CN1C(O)=C(C(=O)NCc2ccccc2)c2ccsc2S1(=O)=O,176 to 177
2,N#Cc1cccc(C(CC(=O)O)N2C(=O)c3ccccc3C2=O)c1 (centres undefined),217 to 220
3,CC1(C)C(C=C(Cl)Cl)C1(C#N)C(=O)O (centres undefined),128 to 132
4,CCC(CC)Nc1c(NCc2ccc(OC)c(OC)c2)c(=O)c1=O,223 to 224
5,CC(=O)Nc1ccc2oc(-c3ccc(OCc4ccccc4)cc3)c(O)c(=O)c2c1,255 to 258
6,C=C(C)n1cc(C(=O)O)c(=O)c2cc(F)c(Cl)cc21,229
7,NNc1cc(-c2ccnc(Nc3cccc(Cl)c3)n2)ccn1,201 to 203
8,COc1ccccc1CNc1ccc2cc(Nc3nccc(C(F)(F)F)n3)ccc2n1,114
9,CC(C)=CCOC1(C(F)(F)F)CN(C2CC2)C(=O)Nc2ccc(Cl)cc21 (centres undefined),130 to 131
10,COCCC(=O)OC1(C(=O)CO)CCC2C3CCC4=CC(=O)CCC4(C)C3C(O)CC21C (centres undefined),172
11,CC(=O)c1c(-c2ccc(F)cc2)[nH]c(-c2ccncc2)c1C,202 to 203
12,Cc1cc(F)ccc1-n1c(CF)nc2ccc([N+](=O)[O-])cc2c1=O,171 to 173
13,CN1C(=O)CC(c2c(-c3ccc[nH]3)[nH]c3ccc(O)cc23)C1=O (centres undefined),148 to 154
14,O=C(CC(O)(c1cc(Cl)cc(Cl)c1)C(F)(F)F)c1ccc(-n2ccnc2)cc1 (centres undefined),161 to 162
15,CCCCCCOc1ccc(-c2nc(-c3ccc(OCCCCCC)cc3O)nc(-c3c(C)cc(C)cc3C)n2)c(O)c1,140 to 142
16,CCCN(c1ncncc1C#N)n1ccc2ccccc21,129 to 130
17,Nc1cc(C(=O)NC2CCC2)n[nH]1,147
18,ClC(Cl)(Cl)c1cccc2nnsc12,67 to 69
19,OCc1cnc(Oc2ccccc2)s1,50
20,Cc1cc(C)c(-c2nc(Cl)nc(Cl)n2)c(C)c1,85 to 91
21,COC1=C(OC)C(=O)C2=C(CCC(CCO)CC2)C1=O,63 to 64
22,O=C(O)CCC(Cl)(Cl)Cl,54.8
23,Cc1cccc(C(=O)n2nc(Nc3cccc(OCC(=O)N4CCNCC4)c3)nc2N)c1,169 to 171
24,CC(C)Cn1nc(OCCCCc2ccc(OC(C)C)cc2Oc2ncc(C(F)(F)F)cc2Cl)cc1CCC(=O)O,122 to 123
